Source: PubChem BioAssay AID2254 (The Scripps Research Institute Molecular Screening Center, 2010)

Molecular target: Serine hydrolase RBBP9 (Homo sapiens) (UniProt O75884)
Assay: human RBBP9 inhibitor potency, late-stage follow-up, biochemical, gel-based ABPP, IC50 (AID 2254)
Settings: fluorophosphonate probe labeling of RBBP9

Sequence of Serine hydrolase RBBP9 (Homo sapiens) (O75884 whole entry, looked up): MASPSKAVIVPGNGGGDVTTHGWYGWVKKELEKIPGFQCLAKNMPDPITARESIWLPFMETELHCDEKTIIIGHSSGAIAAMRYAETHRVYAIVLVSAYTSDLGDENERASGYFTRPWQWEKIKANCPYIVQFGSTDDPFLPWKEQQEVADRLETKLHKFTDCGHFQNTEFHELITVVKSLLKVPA

SMILES	IC50 [µM]
C/C(=N\OC(=O)c1ccc(Cl)cc1)c1nccs1	1.9
C/C(=N\OC(=O)c1ccc(F)cc1)c1nccs1	5.7
C/C(=N\OC(=O)C1CCCCC1)c1nccs1	0.635
COc1ccc(C(=O)O/N=C(\C)c2nccs2)cc1	9.1
